Data on six substances can be found in patent US7452865B2, “Antagonistic analogs of GH RH (2003)” (The Administrare's of the Tulane Educational Fund, priority 2004, dated 2008).

Marks after values point to notes of the source that are not given here.

Assay [1] relates to GH-RH receptor isoforms on membrane fractions of human PC-3 prostate tumors. The assay is classed as binding. The settings on record: general statement. A digest of the protocol:
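Competitive displacement of [^125I]JV-1-42 from crude membranes of human PC-3 prostate tumours grown as nude-mouse xenografts, with unlabelled peptides at 10^−12 to 10^−6 M. Bound radioactivity in the centrifuged pellet gamma-counted; Ki from Munson–Rodbard analysis. Relative affinity = Ki of reference peptide (JV-1-36 or JV-1-38) / Ki of test antagonist.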

The test system of assay [2] is PC-3 human prostate cancer xenografts. In words: PC-3 xenografts in nude mice, Experiment 2: tumor growth. The assay is classed as in vivo. To be noted: for Tumor volume (mm^3) Initial: 5 μg/day groups, at start of treatment; for Tumor volume (mm^3) Final / Tumor volume doubling time / Tumor weight / Tumor volume Final (% inhibition) / Tumor weight (% inhibition): 5 μg/day s.c., 28 days; for Tumor volume Final (% inhibition) / Tumor weight (% inhibition): vs control. The procedure:
(§1) Male nude mice were implanted s.c. with 3 mm^3 pieces of PC-3 human hormone-independent prostate cancer tissue on both flanks. When tumors reached a volume of approx. 50 mm^3, the mice were divided into 5 experimental groups with 7 to 8 animals in each group and received single daily injections for 28 days as follows: 1. Control (vehicle solution); 2. JV-1-38 (10 μg/day s.c.); 3 Peptide 31 (10 μg/day s.c.); 4. Peptide 67 (10 μg/day s.c.); 5. Peptide 62 (10 μg/day s.c.). Tumor volumes were measured twice a week. The experiment was ended on day 29 by sacrificing the mice under Isoflurane anesthesia. Resulting tumors were cleaned, weighed, and snap-frozen until further analyses. Trunk blood was collected from the abdominal aorta and serum was separated for RIA measurement of IGF-I. Statistical analyses of the measurement results were done by two-tailed t-test; data are presented as the means±S.E.
(§2) Experiment 2 was similar to Experiment 1, with the difference that Experiment 2 was started when PC-3 tumors had grown to approximately 30 mm^3 in volume. At this time, the animals were divided into 8 experimental groups with 8 animals in each group, and received single daily injections for 28 days as follows. 1. Control (vehicle solution); 2. JV-1-38 (10 μg/day s.c.); 3. Peptide 46 (5 μg/day: s.c.); 4. Peptide 77 (5 μg/day s.c); 5. Peptide 76 (5 μg/day s.c.); 6. Peptide 70 (5 μg/day s.c.); 7 Peptide 79 (5 μg/day s.c.); 8. Peptide 80 (5 μg/day s.c.). Further details of Experiment 2 are the same as for Experiment 1.

Assay [3] has as its system IGF-I. In words: PC-3 xenografts, Experiment 2: serum IGF-I (RIA). The assay is classed as in vivo, nude mice. To be noted: 5 μg/day s.c., 28 days; for Serum IGF-I (% inhibition): vs control.
Source text: For the measurement of GH and IGF-I levels in the serum, as well as IGF-I and IGF-II concentrations in the cytosol fraction of tumors, blood samples and tumor samples were collected and processed as described (Braczkowski R, Schally A V, Plonowski A, Varga J L, Groot K, Krupa M, Armatis P, Cancer 95: 1735-1745, 2002), hereby incorporated by reference. Briefly, blood samples are centrifuged to separate the serum, tumors are homogenized and centrifuged to separate the cytosol fraction. Serum GH is then measured by the double-antibody RIA method. Before measurement by RIA, IGF-I and IGF-II are extracted from serum and cytosol fractions using an acid-ethanol cryoprecipitation method that eliminates most of the IGF binding proteins, which can interfere with the RIA. IGF-I concentration is measured by RIA using IGF-I as a standard and goat anti-IGF-I antibody (both from DSL Inc., Webster, Tex.). IGF-II concentration is measured by RIA using human recombinant IGF-II (Bachem) as a standard and anti-IGF-II monoclonal antibody (Amano International Enzyme, Troy, Va.).
as §1, §2

For assay [4], the system named is hGH-RH(1-29)NH2 induced GH release. Kind of assay: Inhibition of GH release in superfused rat pituitary system. The settings on record: antagonist 30 nM. The assay is classed as cell-based. The method, boiled down: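 Dispersed rat pituitary cells in superfusion were preincubated 9 min with analog at various concentrations, then stimulated with 1 nM hGH-RH(1-29)NH2 for 3 min, repeated at 30, 60, 90, 120 min to gauge duration. GH measured by double-antibody RIA; net integrated responses expressed as percent of the initial 1 nM GH-RH response.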

Assay [5] concerns H-69 human SCLC xenografts. Kind of assay: H-69 human SCLC xenografts in nude mice: tumor growth. It is filed as in vivo. How it is done: Male nude mice were implanted s.c. with 3 mm^3 pieces of H-69 human SCLC tissue. When tumors reached a volume of approx. 80 mm^3 the mice were divided into 4 experimental groups of 7-8 animals each and received the following treatment for 4 weeks: group I (control), vehicle solution; group 2, Peptide 67 (10 μg/day s.c.); group 3, Peptide 31 (10 μg/day s.c.); group 4, Peptide 72 (10 μg/day s.c.). Tumor volumes were recorded twice a week. At the end of treatment, mice were anesthetized with isoflurane, killed by decapitation, and tumors were excised and weighed. Data are presented as means±S.E. Data were evaluated by one way ANOVA and the Student-Newman-Keuls test.
(Xenograft models place foreign cells or tissue in a host animal.)

Turning to “[HOOC(CH2)12CO-Tyr^1, D-Arg^2, Phe(pCl)^6, Cit^8, Amp^9, Tyr(Me)^10, His^11, Abu^15, Nle^27, D-Arg^28, Har^29]hGH-RH(1-29)NH2 [Peptide 77]”, in assay [1], the “binding affinities to the tumoral receptors for GH-RH (in words)” value (shortened to “binding affinities”) is listed as “extremely high binding affinities”. Moreover, in assay [2], the “Tumor volume (mm^3) Initial” value is reported as 27.2 ± 3.2 mm^3, the “Tumor volume (mm^3) Final” value is reported as 192 ± 44.1 mm^3, the “Tumor volume doubling time” value turned out to be 10.7 ± 0.8 days and the “Tumor weight” value was 138 ± 34.3 mg. In addition, in assay [2], the “Tumor volume Final (% inhibition)” value is on record as “(45%)” and the “Tumor weight (% inhibition)” value is given as “(51%)”. In addition, in assay [3], the “Serum IGF-I” value came out at 276 ± 16.8 ng/mL and the “Serum IGF-I (% inhibition)” value stood at 0%.
For the substance “[PhAc-Tyr^1, D-Arg^2, Phe(pCl)^6, Har^9, Tyr(Me)^10, Abu^15, Nle^27, D-Arg^28, Har^29]hGH-RH(1-29)NHEt [Peptide 46]”, the “GH response (% of control) 0 min” value in assay [4] (1 nM hGH-RH(1-29)NH2 at 0 min) is 91 % of control. For the same substance, the “GH response (% of control) 30 min” value in assay [4] (1 nM hGH-RH(1-29)NH2 at 30 min) is reported as 28 % of control. In addition, the “GH response (% of control) 60 min” value in assay [4] (1 nM hGH-RH(1-29)NH2 at 60 min) is reported as 31 % of control. Also, the “GH response (% of control) 90 min” value in assay [4] (1 nM hGH-RH(1-29)NH2 at 90 min) was 56 % of control. In addition, the “GH response (% of control) 120 min” value in assay [4] (1 nM hGH-RH(1-29)NH2 at 120 min) is listed as 30 % of control. For the same substance, in assay [2], the “Tumor volume (mm^3) Initial” value is given as 26.6 ± 2.7 mm^3, the “Tumor volume (mm^3) Final” value worked out at 246 ± 93.7 mm^3, the “Tumor volume doubling time” value was found to be 11.2 ± 1.3 days and the “Tumor weight” value came out at 188 ± 66.1 mg. Further, in assay [2], the “Tumor volume Final (% inhibition)” value is “(30%)” and the “Tumor weight (% inhibition)” value is recorded as “(34%)”. In addition, in assay [3], the “Serum IGF-I” value is 288 ± 17.9 ng/mL and the “Serum IGF-I (% inhibition)” value is listed as 0%.
With “[CH3(CH2)6CO-Tyr^1, D-Arg^2, Phe(pCl)^6, Amp^9, Tyr(Me)^10, Abu^15, Nle^27, D-Arg^28, Har^29]hGH-RH(1-29)NH2 [Peptide 70]”, the “binding affinities” value in assay [1] was “extremely high binding affinities”. Further, in assay [2], the “Tumor volume (mm^3) Initial” value is 26.5 ± 3.7 mm^3, the “Tumor volume (mm^3) Final” value is listed as 199 ± 40.4*# mm^3, the “Tumor volume doubling time” value amounted to 12.6 ± 2.5 days and the “Tumor weight” value was found to be 119 ± 25.3 mg. Further, in assay [2], the “Tumor volume Final (% inhibition)” value was “(43%)” and the “Tumor weight (% inhibition)” value was “(58%)”. For the same substance, in assay [3], the “Serum IGF-I” value worked out at 175 ± 12.9 ng/mL and the “Serum IGF-I (% inhibition)” value was found to be 33%.
“[CH3(CH2)6CO-Tyr^1, D-Arg^2, Phe(pCl)^6, Cit^8, His^9, Tyr(Et)^10, His^11, Abu^15, Nle^27, D-Arg^28, Har^29]hGH-RH(1-29)NH2 [Peptide 79]”: the “binding affinities” value in assay [1] is given as “extremely high binding affinities”. In addition, in assay [2], the “Tumor volume (mm^3) Initial” value was found to be 29.1 ± 4.3 mm^3, the “Tumor volume (mm^3) Final” value is 139 ± 49.4*# mm^3, the “Tumor volume doubling time” value was determined as 13.6 ± 1.8 days and the “Tumor weight” value is reported as 153 ± 54.5 mg. Further, in assay [2], the “Tumor volume Final (% inhibition)” value is “(60%)” and the “Tumor weight (% inhibition)” value is “(46%)”. In addition, in assay [3], the “Serum IGF-I” value came out at 181 ± 19.8 ng/mL and the “Serum IGF-I (% inhibition)” value amounted to 31%.
On to “[CH3(CH2)6CO-Tyr^1, D-Arg^2, Phe(pCl)^6, Cit^8, Amp^9, Tyr(Me)^10, His^11, Abu^15, Nle^27, D-Arg^28, Har^29]hGH-RH(1-29)NH2 [Peptide 76]”, for which, in assay [1], the “binding affinities” value is “extremely high binding affinities”. Also, in assay [2], the “Tumor volume (mm^3) Initial” value was determined as 26.8 ± 3.4 mm^3, the “Tumor volume (mm^3) Final” value is given as 232 ± 30.8 mm^3, the “Tumor volume doubling time” value worked out at 9.4 ± 0.6 days and the “Tumor weight” value was determined as 226 ± 48.3 mg. Besides, in assay [2], the “Tumor volume Final (% inhibition)” value is recorded as “(34%)” and the “Tumor weight (% inhibition)” value is “(20%)”. In assay [3], the “Serum IGF-I” value came to 260 ± 29.7 ng/mL and the “Serum IGF-I (% inhibition)” value was 1%.
Regarding “[HOOC(CH2)12CO-Tyr^1, D-Arg^2, Phe(pCl)^6, Amp^9, Tyr(Me)^10, Abu^15, Nle^27, D-Arg^28, Har^29]hGH-RH(1-29)NH2 [Peptide 72]”, the “binding affinities” value in assay [1] is “extremely high binding affinities”. Also, the “antiproliferative effect on H-69 tumors (in words)” value in assay [5] (10 μg/day, single daily injections) is recorded as “strongest antiproliferative effect”. In addition, the “Tumor volume (mm^3) Final” value in assay [5] (H-69, 10 μg/day s.c., 4 weeks) was 308 ± 23* mm^3. Further, the “Tumor volume Final (% inhibition)” value in assay [5] (H-69, 10 μg/day s.c., 4 weeks, vs control) is reported as “(90%)”. Further, the “Tumor volume (mm^3) Initial” value in assay [5] (H-69, at start of treatment) was determined as 81 ± 9 mm^3.
